In patent publication US6949543B2, “Amide derivative” (Yamanouchi Pharmaceutical Co., Ltd., priority 2000, dated 2005):

Each molecule was assayed on VZV (strain CaQu) (assay: Anti-VZV activity assay (plaque reduction in HEF cells)). Details: Human alphaherpesvirus 3, 3 to 4 days culture, plaque count, read-out: EC50 (concentration to inhibit 50% of the plaques).
Type: cell-based, varicella zoster virus
Protocol: This assay was carried out in accordance with the method described by Shigeta S. (The Journal of Infectious Diseases, 147, 3, 576-584 (1983). Illustratively, HEF cells were seeded a 96 well microtiter plate at 10,000 cells per well using a propagation medium and cultured at 37° C. for 4 days in an atmosphere of 5% CO2 until monolayers were formed. After washing the cells with a maintaining medium, the cells were inoculated with 100 μl/well of VZV (strain CaQu) which had been diluted to 20 to 30 pfu/100 μl with the maintaining medium. The plate was centrifuged at 2,000 rpm for 20 minutes at room temperature and then incubated at 37° C. for 3 hours in an atmosphere of 5% CO2 to infect with VZV. After washing three times with 100 μl/well of the maintaining medium, 100 μl of each test drug diluted to an appropriate concentration with the maintaining medium was added to each well. After culturing the cells at 37° C. for 3 to 4 days in an atmosphere of 5% CO2, the cells were fixed with 100 μl/well of 10% formalin/PBS for 2 to 3 hours. After discarding the fixing solution and culture supernatant and subsequently washing the plate with water, a staining solution (0.025% Crystal Violet) was added in 50 μl/well to carry out 2 to 3 minutes for staining, and then the plate was washed with water and dried at 37° C. The HEF cells infected with VZV cause cell death, and plaques comprising dead cells are formed in the monolayer HEF cells. The number of plaques was counted under a microscope, and EC50 value of the test drug was calculated as a concentration to inhibit 50% of the plaques.

EC50 [nM]	Compound
4300	Nc1nc2c(ncn2COCCO)c(=O)[nH]1 [ACV, Acyclovir, reference compound]
25	Nc1nc(-c2ccc(NC(=O)CN(C(=O)c3ccncc3)c3ccc4scnc4c3)cc2)cs1 [Example 108]
49	Nc1nc(-c2ccc(NC(=O)CN(C(=O)C3CCOCC3)c3ccc4scnc4c3)cc2)cs1 [Example 110]
26	Nc1nc(-c2ccc(NC(=O)CN(C(=O)C3CCSCC3)c3ccc4scnc4c3)cc2)cs1 [Example 111]
40	Nc1nc(-c2ccc(NC(=O)CN(C(=O)C3CCSc4ccccc43)c3ccc4scnc4c3)cc2)cs1 (stereo not shown) [Example 113]
70	Nc1nc(-c2ccc(NC(=O)CN(C(=O)C3CCCCC3)c3ccc4ncsc4c3)cc2)cs1 [Example 114]
28	Nc1nc(-c2ccc(NC(=O)CN(C(=O)C3CC=C(F)CC3)c3ccc4scnc4c3)cc2)cs1 (stereo not shown) [Example 115]
33	Nc1nc(-c2ccc(NC(=O)CN(C(=O)C3CCC(F)(F)CC3)c3ccc4scnc4c3)cc2)cs1 [Example 116]
65	Nc1nc(-c2ccc(NC(=O)CN(C(=O)c3ccc(F)nc3)c3ccc4scnc4c3)cc2)cs1 [Example 117]
59	Nc1nc(-c2ccc(NC(=O)CN(C(=O)c3ccncn3)c3ccc4scnc4c3)cc2)cs1 [Example 118]
